# Tests used:
# [1] = test system: bedstraw; assay: Test B pre/postemergence bedstraw; format: in vivo, Galium aparine
# Method in brief: (§1)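 Herbicidal effect was estimated by eye on a ten-point control scale after plants spent twelve to sixteen days in a greenhouse following soil or foliar treatment. Foliar sprays targeted plants at one to four leaves; all doses were formulated in a non-phytotoxic solvent with surfactant.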
# [2] = test system: pigweed; assay: Test B pre/postemergence pigweed; format: in vivo, Amaranthus retroflexus
# Method in brief: as §1
# [3] = test system: rice; assay: Test B flood test rice; format: in vivo, Oryza sativa
# Method in brief: (§2)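 Flood test on plants grown to the 2-leaf stage; treated plants kept in greenhouse twelve to sixteen days, then visually rated against controls on a 0 (no effect) to 10 (complete control) scale.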
# [4] = test system: soybean; assay: Test B pre/postemergence soybean; format: in vivo, Glycine max
# Method in brief: as §1
# [5] = test system: wheat; assay: Test B pre/postemergence wheat; format: in vivo, Triticum aestivum
# Method in brief: as §1
# [6] = test system: corn; assay: Test B pre/postemergence corn; format: in vivo, Zea mays
# Method in brief: as §1
# [7] = test system: giant foxtail; assay: Test B pre/postemergence giant foxtail; format: in vivo, Setaria faberii
# Method in brief: as §1
# [8] = test system: bamyardgrass; assay: Test B flood test barnyardgrass; format: in vivo, Echinochloa crus-galli
# Method in brief: as §2
# [9] = test system: crabgrass; assay: Test B pre/postemergence crabgrass; format: in vivo, Digitaria sanguinalis
# Method in brief: as §1
# [10] = test system: duck salad; assay: Test B flood test duck salad; format: in vivo, Heteranthera limosa
# Method in brief: as §2
# [11] = test system: purple nutsedge; assay: Test B pre/postemergence purple nutsedge; format: in vivo, Cyperus rotundus
# Method in brief: as §1
# [12] = test system: rape; assay: Test B pre/postemergence rape; format: in vivo, Brassica napus
# Method in brief: as §1
# [13] = test system: cocklebur; assay: Test B pre/postemergence cocklebur; format: in vivo, Xanthium strumarium
# Method in brief: as §1
# [14] = test system: smallflower flatsedge; assay: Test B flood test smallflower flatsedge; format: in vivo, Cyperus difformis
# Method in brief: as §2
# [15] = test system: sugar beet; assay: Test B pre/postemergence sugar beet; format: in vivo, Beta vulgaris
# Method in brief: as §1
# [16] = test system: blackgrass; assay: Test B pre/postemergence blackgrass; format: in vivo, Alopecurus myosuroides
# Method in brief: as §1
# [17] = test system: wild oat; assay: Test B pre/postemergence wild oat; format: in vivo, Avena fatua
# Method in brief: as §1
# [18] = test system: surinam grass; assay: Test B pre/postemergence surinam grass; format: in vivo, Brachiaria decumbens
# Method in brief: as §1
# [19] = test system: morningglory; assay: Test B pre/postemergence morningglory; format: in vivo, Ipomoea hederacea
# Method in brief: as §1
# [20] = test system: velvetleaf; assay: Test B pre/postemergence velvetleaf; format: in vivo, Abutilon theophrasti
# Method in brief: as §1
# [21] = Preemergence, Rate 62 g/ha, scale of 0 to 10 where 0 is no effect and 10 is complete control
# [22] = Preemergence, Rate 250 g/ha, scale of 0 to 10 where 0 is no effect and 10 is complete control
# [23] = Preemergence, Rate 500 g/ha, scale of 0 to 10 where 0 is no effect and 10 is complete control
# [24] = Rate 62 g/ha, Postemergence, scale of 0 to 10 where 0 is no effect and 10 is complete control
# [25] = Rate 125 g/ha, Postemergence, scale 0 to 10
# [26] = Rate 125 g/ha, Preemergence, scale of 0 to 10 where 0 is no effect and 10 is complete control
# [27] = Rate 500 g/ha, Postemergence, scale 0 to 10, 0 no effect, 10 complete control
# [28] = Rate 62 g/ha, headed Pre-emergence (flood test species), scale 0 to 10 (0 no effect, 10 complete control)
# [29] = Rate 125 g/ha, Pre-emergence, flood test species, scale 0 to 10 where 0 is no effect and 10 is complete control
# [30] = Rate 250 g/ha, Pre-emergence, flood-test species, scale 0 to 10, 0 is no effect, 10 is complete control
# [31] = Rate 500 g/ha, Pre-emergence, flood test species, scale 0 to 10 (0 no effect, 10 complete control)
smiles,measurement,setting,value
CC(C)N(C(=O)n1oc(=O)n(CC(=O)OC(C)(C)C)c1=O)c1ccc(F)cc1 [Compound 265],Bedstraw plant response rating,[1]; [21],0
same,Bedstraw plant response rating,[1]; [22],0
same,"Plant response rating, Bedstraw",[1]; [23],0
same,Bedstraw plant response rating,[1]; [24],0
same,Bedstraw plant response rating,[1]; [25],2
same,Bedstraw plant response rating,[1]; [26],0
same,"Plant response rating (0 to 10; 0 is no effect, 10 is complete control), Bedstraw","[1]; Rate 250 g/ha, Postemergence",3
same,Bedstraw plant response rating,[1]; [27],8
same,Redroot pigweed plant response rating,[2]; [21],0
same,Redroot pigweed plant response rating,[2]; [22],0
same,"Plant response rating, Redroot pigweed",[2]; [23],0
same,Redroot pigweed plant response rating,[2]; [26],0
same,"Plant response rating (0 to 10; 0 is no effect, 10 is complete control), Redroot pigweed","[2]; Rate 250 g/ha, Postemergence",3
same,Redroot pigweed plant response rating,[2]; [27],4
same,Rice plant response rating,[3]; [28],0
same,Rice plant response rating,[3]; [29],0
same,Rice plant response rating,[3]; [30],0
same,Rice plant response rating,[3]; [31],0
same,Soybean plant response rating,[4]; [21],0
same,Soybean plant response rating,[4]; [22],0
same,"Plant response rating, Soybean",[4]; [23],0
same,Soybean plant response rating,[4]; [26],0
same,Soybean plant response rating,[4]; [27],4
same,Wheat plant response rating,[5]; [21],0
same,Wheat plant response rating,[5]; [22],0
same,"Plant response rating, Wheat",[5]; [23],1
same,Wheat plant response rating,[5]; [26],0
same,Wheat plant response rating,[5]; [27],0
same,Corn plant response rating,[6]; [21],0
same,Corn plant response rating,[6]; [22],0
same,"Plant response rating, Corn",[6]; [23],0
same,Corn plant response rating,[6]; [24],0
same,Corn plant response rating,[6]; [25],0
same,Corn plant response rating,[6]; [26],0
same,"Plant response rating (0 to 10; 0 is no effect, 10 is complete control), Corn","[6]; Rate 250 g/ha, Postemergence",0
same,Corn plant response rating,[6]; [27],0
same,Giant foxtail plant response rating,[7]; [21],6
same,Giant foxtail plant response rating,[7]; [22],8
same,"Plant response rating, Giant foxtail",[7]; [23],10
same,Giant foxtail plant response rating,[7]; [26],8
same,"Plant response rating (0 to 10; 0 is no effect, 10 is complete control), Giant foxtail","[7]; Rate 250 g/ha, Postemergence",2
same,Giant foxtail plant response rating,[7]; [27],2
same,Barnyardgrass plant response rating,[8]; [28],0
same,Barnyardgrass plant response rating,[8]; [29],0
same,Barnyardgrass plant response rating,[8]; [30],0
same,Barnyardgrass plant response rating,[8]; [31],0
same,Crabgrass plant response rating,[9]; [21],1
same,Crabgrass plant response rating,[9]; [22],2
same,"Plant response rating, Crabgrass",[9]; [23],6
same,Crabgrass plant response rating,[9]; [26],2
same,"Plant response rating (0 to 10; 0 is no effect, 10 is complete control), Crabgrass","[9]; Rate 250 g/ha, Postemergence",2
same,Crabgrass plant response rating,[9]; [27],3
same,Ducksalad plant response rating,[10]; [28],0
same,Ducksalad plant response rating,[10]; [29],0
same,Ducksalad plant response rating,[10]; [30],0
same,Ducksalad plant response rating,[10]; [31],0
same,Nutsedge plant response rating,[11]; [21],0
same,Nutsedge plant response rating,[11]; [22],0
same,"Plant response rating, Nutsedge",[11]; [23],0
same,"Plant response rating (0 to 10; 0 is no effect, 10 is complete control), Nutsedge","[11]; Rate 250 g/ha, Postemergence",0
same,Nutsedge plant response rating,[11]; [27],0
same,Rape plant response rating,[12]; [21],0
same,Rape plant response rating,[12]; [22],0
same,"Plant response rating, Rape",[12]; [23],0
same,Rape plant response rating,[12]; [26],0
same,"Plant response rating (0 to 10; 0 is no effect, 10 is complete control), Rape","[12]; Rate 250 g/ha, Postemergence",1
same,Rape plant response rating,[12]; [27],3
same,Cocklebur plant response rating,[13]; [21],0
same,Cocklebur plant response rating,[13]; [22],0
same,Cocklebur plant response rating,[13]; [24],0
same,Cocklebur plant response rating,[13]; [25],0
same,Cocklebur plant response rating,[13]; [26],0
same,"Plant response rating (0 to 10; 0 is no effect, 10 is complete control), Cocklebur","[13]; Rate 250 g/ha, Postemergence",0
same,Cocklebur plant response rating,[13]; [27],0
same,S. Flatsedge plant response rating,[14]; [28],0
same,S. Flatsedge plant response rating,[14]; [29],0
same,S. Flatsedge plant response rating,[14]; [30],0
same,S. Flatsedge plant response rating,[14]; [31],0
same,Sugarbeets plant response rating,[15]; [21],0
same,Sugarbeets plant response rating,[15]; [22],0
same,"Plant response rating, Sugarbeets",[15]; [23],0
same,Sugarbeets plant response rating,[15]; [26],0
same,Sugarbeets plant response rating,[15]; [27],3
same,Blackgrass plant response rating,[16]; [21],0
same,Blackgrass plant response rating,[16]; [22],0
same,Blackgrass plant response rating,[16]; [24],4
same,Blackgrass plant response rating,[16]; [25],4
same,"Plant response rating (0 to 10; 0 is no effect, 10 is complete control), Blackgrass","[16]; Rate 250 g/ha, Postemergence",5
same,Blackgrass plant response rating,[16]; [27],7
same,Wild oats plant response rating,[17]; [21],0
same,Wild oats plant response rating,[17]; [22],2
same,"Plant response rating, Wild oats",[17]; [23],5
same,Wild oats plant response rating,[17]; [26],0
same,Wild oats plant response rating,[17]; [27],0
same,B. signalgrass plant response rating,[18]; [21],0
same,B. signalgrass plant response rating,[18]; [22],0
same,"Plant response rating, B. signalgrass",[18]; [23],4
same,B. signalgrass plant response rating,[18]; [24],0
same,B. signalgrass plant response rating,"[18]; Rate 125 g/ha, Postemergence, scale 0 (no effect) to 10 (complete control)",0
same,B. signalgrass plant response rating,[18]; [26],0
same,"Plant response rating (0 to 10; 0 is no effect, 10 is complete control), B. signalgrass","[18]; Rate 250 g/ha, Postemergence",0
same,B. signalgrass plant response rating,[18]; [27],0
same,Morningglory plant response rating,[19]; [21],0
same,Morningglory plant response rating,[19]; [22],0
same,"Plant response rating, Morningglory",[19]; [23],0
same,Morningglory plant response rating,[19]; [26],0
same,"Plant response rating (0 to 10; 0 is no effect, 10 is complete control), Morningglory","[19]; Rate 250 g/ha, Postemergence",6
same,Morningglory plant response rating,[19]; [27],8
same,Velvetleaf plant response rating,[20]; [21],0
same,Velvetleaf plant response rating,[20]; [22],0
same,"Plant response rating, Velvetleaf",[20]; [23],0
same,Velvetleaf plant response rating,[20]; [26],0
same,Velvetleaf plant response rating,[20]; [27],3

# From US6737383B1, “Herbicidal oxadiazolidines” (priority 1999, dated 2004)
